Test results published in US7939074B2, “Combination of an anti-EP-CAM antibody with a chemotherapeutic agent” (GlaxoSmithKline LLC, priority 1999, dated 2011).
Where a name gives a salt, the structure may show the parent alone.

How the values were obtained:
[1] = system: Human colon adenocarcinoma (HT-29) tumours; test: Localization of 177Lu-labelled humanised 323/A3 IgG4cys-TMT to HT-29 xenografts after drug pre-treatment; format: in vivo, female CD-1 nude mice; conditions: HT-29 xenograft mice; NAVELBINE 28 mg/kg i.v. or 5-FU 20 mg/kg i.p. on days 1 and 5; labelled antibody on day 6
Experimental: Human colon adenocarcinoma (HT-29) tumours were initiated by subcutaneous implantation into female CD-1 nude mice (Charles River). When the tumours reached 200-300 mg, animals were divided into groups of five. NAVELBINE® was injected intravenously at a dosage of 28 mg/kg on days 1 and 5. A control group was dosed with 5-fluorouracil (5-FU) intraperitoneally at 20 mg/kg on days 1 and 5. On day 6, humanised 323/A3 IgG4cys-TMT (a humanized monoclonal antibody chelator conjugate with specificity for the Ep-CAM antigen) was labelled with lutetium-177 and injected intravenously via the lateral tail vein. Each mouse received […]/2.09 μCi lutetium-177/0.2 ml injection. Blood, spleen, liver, lung, kidney, femur and tumour were harvested on days 1, 3 and 5 post-antibody for direct gamma counting (see FIG. 5 for results).

[2] = system: adenocarcinoma cells; test: Cell cycle analysis (propidium iodide flow cytometry) of drug-exposed adenocarcinoma cell lines; format: cell-based, human; conditions: adenocarcinoma cell line; NVB 30 nM then CDDP 5 μM; TAX 80 nM then CPBDA 100 μM; interferons 100 U/ml; media control 6.3%
Experimental: (§1) Populations of PC-3 prostatic adenocarcinoma cells were evaluated for distribution in G0/G1, S, and G2/M phases of the cell cycle as well as Ep-CAM expression. Cells were gently trypsinized and mechanically detached from the culture flasks and resuspended in calcium and magnesium-free phosphate-buffered saline containing bovine serum albumin and NaN3. Exactly 2×10^5 cells were stained with FITC-323/A3 murine IgG antibody or FITC-murine IgG (control). Cells were fixed with cold paraformaldehyde, then permeabilized for DNA staining with Tween-20. Cellular DNA was stained with propidium iodide and RNase A. Listmode data were acquired on a FACScan flow cytometer (Becton Dickinson Immunocytometry Systems) equipped with a 488 nm laser using Cell Fit software. Cell cycle analysis was done using SOBR modelling (where possible, otherwise manual estimations were employed) on Cell Fit. Ep-CAM antigen expression as detected by 323/A3 binding was evaluated separately using histogram analysis in WINLIST™ (Verity Software House).
(§2) Subconfluent cells were exposed to NAVELBINE® or TAXOL® for up to 24 hours, then washed and exposed to cisplatin or carboplatin, respectively, overnight. Cells were exposed to 5FU for 24 hours, and for 2-5 days to the interferons. Cells were washed and cultured for another 2-5 days prior to analysis for antigen expression and cell cycle status as described in Example 1. Antigen expression was quantified by comparison of the binding of fluorescein-conjugated 323/A3 to cultured cells with binding to calibrated microbead standards.

[3] = system: Ep-CAM antigen on adenocarcinoma cells; test: Quantification of Ep-CAM antigen expression by binding of fluorescein-conjugated 323/A3 versus calibrated microbead standards; format: cell-based, human; conditions: adenocarcinoma cells exposed to drugs, Example 2 / FIG. 2, versus media
Experimental: as §1, §2
The expression of Ep-CAM antigen was quantified on a variety of adenocarcinoma cell lines as well as primary cultures of normal human cells. Cultured subconfluent cells were exposed sequentially to media, or to 30 nM NAVELBINE® followed by 5 μM cisplatin (NVB+CDDP), or to 80 nM TAXOL® followed by 100 μM carboplatin (TAX+CPBDA). Cells were washed with media and cultured for another 2-5 days prior to analysis for antigen expression as described in Examples 1 and 2.

[4] = system: HT29 adenocarcinoma cells; test: Binding of PANOREX to drug-treated HT29 cells; format: cell-based, human; conditions: 15 minute incubation with PANOREX after culture with drugs
Experimental: as §2
The binding of PANOREX®, a related murine monoclonal antibody with specificity for the Ep-CAM antigen, was evaluated after a 15 minute incubation with HT29 adenocarcinoma cells which had been cultured with NAVELBINE® plus Cisplatin or with TAXOL® as previously described. A significant increase (34%) in antibody binding was seen on the cells treated with NAVELBINE® plus Cisplatin; 82% of these cells were arrested in S or G2/M cycle phase compared to 21% of the control cells.

[5] = system: HT29 adenocarcinoma cells; test: Cell cycle arrest in drug-treated HT29 cells; format: cell-based, human; conditions: HT29 cells cultured with drugs; control cells 21%
Experimental: as §1, with “Cellular DNA was stained with propidium iodide and RNase A. Listmode data were acquired on a FACScan flow cytometer (Becton Dickinson Immunocytometry Systems) equipped with a 488 nm laser using Cell Fit software. Cell cycle analysis was done using SOBR modelling (where possible, otherwise manual estimations were employed) on Cell Fit.” left out
Subconfluent cells were exposed to NAVELBINE® or TAXOL® for up to 24 hours, then washed and exposed to cisplatin or carboplatin, respectively, overnight. […] Antigen expression was quantified by comparison of the binding of fluorescein-conjugated 323/A3 to cultured cells with binding to calibrated microbead standards.
The binding of PANOREX®, a related murine monoclonal antibody with specificity for the Ep-CAM antigen, was evaluated after a 15 minute incubation with HT29 adenocarcinoma cells which had been cultured with NAVELBINE® plus Cisplatin or with TAXOL® as previously described. […]

Row | Compound | antibody targeting to Ep-CAM positive tumours [1] | cells in S and G2/M phases combined [2] [%] | Ep-CAM antigen expression [3] | increase in antibody binding (PANOREX) [4] [%] | cells arrested in S or G2/M cycle phase [5] [%]
1 | CCC1=C[C@@H]2CN(C1)Cc1c([nH]c3ccccc13)[C@@](C(=O)OC)(c1cc3c(cc1OC)N(C)[C@H]1[C@@](O)(C(=O)OC)[C@H](OC(C)=O)[C@]4(CC)C=CCN5CC[C@]31[C@@H]54)C2 (relative stereo) [NAVELBINE®, 3′,4′-didehydro-4′-deoxy-C′-norvincaleukoblastine [R-(R*,R*)-2,3-dihydroxybutanedioate (1:2)(salt)]] | increases antibody targeting | – | – | – | –
2 | O=c1[nH]cc(F)c(=O)[nH]1 [5FU, 5-Fluorouracil] | – | 7.9 | not significantly increased | – | –
3 | CC(=O)O[C@H]1C(=O)[C@@]2(C)[C@H]([C@H](OC(=O)c3ccccc3)[C@]3(O)C[C@H](OC(=O)[C@H](O)[C@@H](NC(=O)c4ccccc4)c4ccccc4)C(C)=C1C3(C)C)[C@]1(OC(C)=O)CO[C@@H]1C[C@@H]2O [TAXOL®, 5β,20 epoxy-1,2α,4,7β,10β,13α-hexahydroxytax-11-en-9-one 4,10-diacetate 2-benzoate 13-ester with (2R,3S)-N-benzoyl-3-phenylisoserine] | – | – | – | 8 | 57
4 | IFN-α | – | 12 | not significantly increased | – | –
5 | IFN-γ: interferon-gamma, used at 100 U/ml | – | 11.5 | not significantly increased | – | –
